Results on six compounds are retold here after US20230064983A1 (priority 2020, published 2023).

pIC50: −log10 of the molar value.

Common to all, as to format: cell-based
For test [1], the target named is Ba/F3-EGFR-D770_N771insSVD cells (Homo sapiens, UniProt P00533, DUP768-770, cells depend on it). Nature of the test: Ba/F3 cell survival assay, EGFR D770_N771insSVD. Conditions: Cell Titer-Glo, 48 h, without IL-3; Table 4; read-out: BA/F3 (insSVD) IC50. Background: Cellular ATP, detected with luciferase, serves as a proxy for viable cell number.
Ba/F3-EGFR-D770_N771insSVD cells, sequence (P00533 with tags, fused parts or gaps DUP768-770): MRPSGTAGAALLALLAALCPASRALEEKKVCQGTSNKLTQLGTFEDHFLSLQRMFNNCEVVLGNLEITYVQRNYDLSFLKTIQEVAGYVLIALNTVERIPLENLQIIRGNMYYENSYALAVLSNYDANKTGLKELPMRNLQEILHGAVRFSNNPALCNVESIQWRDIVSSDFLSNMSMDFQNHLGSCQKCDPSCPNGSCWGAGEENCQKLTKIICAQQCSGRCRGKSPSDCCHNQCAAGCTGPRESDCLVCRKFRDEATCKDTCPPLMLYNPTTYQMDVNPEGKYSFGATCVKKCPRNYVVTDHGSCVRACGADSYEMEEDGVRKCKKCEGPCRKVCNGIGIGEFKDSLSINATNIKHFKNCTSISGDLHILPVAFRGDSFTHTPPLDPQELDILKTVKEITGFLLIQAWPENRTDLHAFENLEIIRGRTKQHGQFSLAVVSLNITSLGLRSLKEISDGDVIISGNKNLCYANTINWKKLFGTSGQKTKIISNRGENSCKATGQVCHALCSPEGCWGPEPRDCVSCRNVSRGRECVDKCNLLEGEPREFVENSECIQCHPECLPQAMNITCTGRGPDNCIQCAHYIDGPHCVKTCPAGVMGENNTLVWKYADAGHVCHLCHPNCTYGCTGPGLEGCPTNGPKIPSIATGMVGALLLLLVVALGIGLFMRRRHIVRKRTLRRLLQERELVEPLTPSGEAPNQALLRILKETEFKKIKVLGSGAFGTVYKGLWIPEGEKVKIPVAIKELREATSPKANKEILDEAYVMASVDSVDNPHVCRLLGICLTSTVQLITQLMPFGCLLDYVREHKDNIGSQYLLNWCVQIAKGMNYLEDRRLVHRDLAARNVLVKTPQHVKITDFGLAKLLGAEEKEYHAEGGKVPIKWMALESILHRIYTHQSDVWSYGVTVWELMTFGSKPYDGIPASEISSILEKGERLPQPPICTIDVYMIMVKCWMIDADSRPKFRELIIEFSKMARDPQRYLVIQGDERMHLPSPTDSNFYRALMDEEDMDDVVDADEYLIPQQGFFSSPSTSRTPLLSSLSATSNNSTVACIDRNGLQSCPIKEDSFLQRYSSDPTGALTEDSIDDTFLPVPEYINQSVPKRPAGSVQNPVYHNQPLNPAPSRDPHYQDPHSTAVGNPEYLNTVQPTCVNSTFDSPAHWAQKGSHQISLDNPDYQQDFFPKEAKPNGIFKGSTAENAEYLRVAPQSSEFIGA
For the next test, the system named is HCC-827 cells. The test is described as follows: HCC-827 cell proliferation assay (EGFRex19del). The conditions noted are these: Homo sapiens, HCC827, 72 h, read-out: HCC-827 IC50. The method, then:
Cellular Data Description (HCC-827 cells, EGFRex19del)
HCC-827 cells were purchased from ATCC. […] cells per well were seeded in growth medium (RPM11640, 10% FCS) in a 384-well plate (CORNING #3571). Seed reference plate for time zero determination on the same day. All plates were incubated overnight at 37° C. After 24 hours, test compound were added in 7-step dilution using HP Compound printer and incubated at 37° C. for 72 h. After 3 days, 30 μL/well CTG solution (Promega Cell Titer Glo solution; catalog #G755B and G756B) were added to each well, incubated for 30 minutes and the plate were read on PheraStar. Proliferation is calculated after subtracting time zero luminescence values from day 4 values and comparing to untreated wells.
The IC50 values were determined using the four parameter fit.

Test [2] addresses Ba/F3-EGFR-N771_P772insH cells (Homo sapiens, UniProt P00533, INS771H, cells depend on it). Nature of the test: Ba/F3 cell survival assay, EGFR N771_P772insH. The conditions noted are these: EGFR Exon20 insertion mutations; Table 6; read-out: BA/F3 (EGFR N771_P772insH) IC50.
The target of test [3] is Ba/F3-EGFR-D770_N771insNPG cells (Homo sapiens, UniProt P00533, INS772GNP, cells depend on it). Nature of the test: Ba/F3 cell survival assay, EGFR D770_N771insNPG. Conditions: EGFR Exon20 insertion mutations; Table 6; read-out: BA/F3 (insNPG) IC50.
Ba/F3-EGFR-D770_N771insNPG cells, sequence (P00533 with tags, fused parts or gaps INS772GNP): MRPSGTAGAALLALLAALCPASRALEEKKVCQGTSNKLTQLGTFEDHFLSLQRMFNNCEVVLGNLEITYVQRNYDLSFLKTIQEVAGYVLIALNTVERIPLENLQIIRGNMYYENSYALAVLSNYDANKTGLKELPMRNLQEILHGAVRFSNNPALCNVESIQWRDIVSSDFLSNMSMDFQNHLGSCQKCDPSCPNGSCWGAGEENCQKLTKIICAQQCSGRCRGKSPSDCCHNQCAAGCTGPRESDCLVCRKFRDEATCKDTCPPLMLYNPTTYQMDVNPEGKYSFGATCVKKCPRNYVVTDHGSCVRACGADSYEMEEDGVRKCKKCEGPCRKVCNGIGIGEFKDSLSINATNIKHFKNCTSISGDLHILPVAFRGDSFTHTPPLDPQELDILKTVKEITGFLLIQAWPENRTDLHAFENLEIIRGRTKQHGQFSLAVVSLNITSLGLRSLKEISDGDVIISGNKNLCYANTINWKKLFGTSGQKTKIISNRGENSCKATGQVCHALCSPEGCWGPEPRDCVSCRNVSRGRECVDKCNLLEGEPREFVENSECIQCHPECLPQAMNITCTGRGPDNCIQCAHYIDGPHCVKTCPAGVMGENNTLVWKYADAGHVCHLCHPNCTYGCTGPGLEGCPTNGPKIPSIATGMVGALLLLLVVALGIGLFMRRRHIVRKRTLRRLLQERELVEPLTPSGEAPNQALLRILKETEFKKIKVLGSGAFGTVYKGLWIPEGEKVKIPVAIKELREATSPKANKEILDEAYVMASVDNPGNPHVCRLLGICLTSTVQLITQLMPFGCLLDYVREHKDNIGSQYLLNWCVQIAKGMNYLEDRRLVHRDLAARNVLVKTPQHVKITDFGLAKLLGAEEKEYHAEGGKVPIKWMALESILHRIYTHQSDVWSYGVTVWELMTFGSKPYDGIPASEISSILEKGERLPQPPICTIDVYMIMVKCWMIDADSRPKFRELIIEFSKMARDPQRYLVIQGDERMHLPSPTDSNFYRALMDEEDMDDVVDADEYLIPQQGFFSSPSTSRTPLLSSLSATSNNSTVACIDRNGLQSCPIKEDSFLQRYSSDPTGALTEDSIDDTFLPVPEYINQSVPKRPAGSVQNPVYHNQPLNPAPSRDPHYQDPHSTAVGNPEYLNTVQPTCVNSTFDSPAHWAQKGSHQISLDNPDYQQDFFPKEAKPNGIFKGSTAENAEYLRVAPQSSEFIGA
Test [4] concerns the target Ba/F3-EGFR-E746_A750del C797S cells (Homo sapiens, UniProt P00533, DEL746-750/C797S, cells depend on it). The test is described as follows: Ba/F3 cell survival assay, EGFR E746_A750del C797S. Conditions: aquired resistance space; Table 8; read-out: BA/F3 (EGFR E746_A750del C797S) IC50.

Ba/F3-EGFR-N771_P772insH cells, sequence (P00533 with tags, fused parts or gaps INS771H): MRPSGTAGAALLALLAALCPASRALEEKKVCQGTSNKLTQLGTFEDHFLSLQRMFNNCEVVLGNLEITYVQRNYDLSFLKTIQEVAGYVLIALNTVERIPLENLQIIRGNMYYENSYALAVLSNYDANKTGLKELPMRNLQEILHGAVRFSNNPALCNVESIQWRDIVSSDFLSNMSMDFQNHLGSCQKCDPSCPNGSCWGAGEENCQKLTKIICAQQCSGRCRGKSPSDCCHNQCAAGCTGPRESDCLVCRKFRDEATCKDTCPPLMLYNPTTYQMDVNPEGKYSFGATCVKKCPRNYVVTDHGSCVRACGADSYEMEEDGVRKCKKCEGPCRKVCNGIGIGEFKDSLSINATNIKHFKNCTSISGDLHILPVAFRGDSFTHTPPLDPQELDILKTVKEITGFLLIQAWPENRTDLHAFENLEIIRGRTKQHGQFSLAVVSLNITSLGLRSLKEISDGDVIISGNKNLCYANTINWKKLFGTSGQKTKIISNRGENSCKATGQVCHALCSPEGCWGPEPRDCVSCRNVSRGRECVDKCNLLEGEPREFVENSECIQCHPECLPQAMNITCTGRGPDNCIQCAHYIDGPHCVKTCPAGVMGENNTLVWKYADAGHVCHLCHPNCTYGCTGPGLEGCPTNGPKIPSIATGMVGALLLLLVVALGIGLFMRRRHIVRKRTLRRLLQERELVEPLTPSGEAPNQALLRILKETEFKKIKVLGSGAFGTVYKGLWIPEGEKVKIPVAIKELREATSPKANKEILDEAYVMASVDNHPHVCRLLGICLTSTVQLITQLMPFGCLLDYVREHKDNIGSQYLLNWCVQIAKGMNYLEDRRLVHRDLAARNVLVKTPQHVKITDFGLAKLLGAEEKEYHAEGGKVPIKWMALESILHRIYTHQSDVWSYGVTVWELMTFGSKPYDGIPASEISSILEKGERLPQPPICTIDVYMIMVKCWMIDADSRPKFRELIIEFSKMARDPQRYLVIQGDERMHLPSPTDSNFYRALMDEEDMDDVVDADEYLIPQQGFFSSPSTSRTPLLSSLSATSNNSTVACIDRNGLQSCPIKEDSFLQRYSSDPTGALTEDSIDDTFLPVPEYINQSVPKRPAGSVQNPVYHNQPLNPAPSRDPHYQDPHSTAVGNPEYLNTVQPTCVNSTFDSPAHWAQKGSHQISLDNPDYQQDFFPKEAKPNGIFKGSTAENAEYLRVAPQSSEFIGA
Ba/F3-EGFR-E746_A750del C797S cells, sequence (P00533 with tags, fused parts or gaps DEL746-750/C797S): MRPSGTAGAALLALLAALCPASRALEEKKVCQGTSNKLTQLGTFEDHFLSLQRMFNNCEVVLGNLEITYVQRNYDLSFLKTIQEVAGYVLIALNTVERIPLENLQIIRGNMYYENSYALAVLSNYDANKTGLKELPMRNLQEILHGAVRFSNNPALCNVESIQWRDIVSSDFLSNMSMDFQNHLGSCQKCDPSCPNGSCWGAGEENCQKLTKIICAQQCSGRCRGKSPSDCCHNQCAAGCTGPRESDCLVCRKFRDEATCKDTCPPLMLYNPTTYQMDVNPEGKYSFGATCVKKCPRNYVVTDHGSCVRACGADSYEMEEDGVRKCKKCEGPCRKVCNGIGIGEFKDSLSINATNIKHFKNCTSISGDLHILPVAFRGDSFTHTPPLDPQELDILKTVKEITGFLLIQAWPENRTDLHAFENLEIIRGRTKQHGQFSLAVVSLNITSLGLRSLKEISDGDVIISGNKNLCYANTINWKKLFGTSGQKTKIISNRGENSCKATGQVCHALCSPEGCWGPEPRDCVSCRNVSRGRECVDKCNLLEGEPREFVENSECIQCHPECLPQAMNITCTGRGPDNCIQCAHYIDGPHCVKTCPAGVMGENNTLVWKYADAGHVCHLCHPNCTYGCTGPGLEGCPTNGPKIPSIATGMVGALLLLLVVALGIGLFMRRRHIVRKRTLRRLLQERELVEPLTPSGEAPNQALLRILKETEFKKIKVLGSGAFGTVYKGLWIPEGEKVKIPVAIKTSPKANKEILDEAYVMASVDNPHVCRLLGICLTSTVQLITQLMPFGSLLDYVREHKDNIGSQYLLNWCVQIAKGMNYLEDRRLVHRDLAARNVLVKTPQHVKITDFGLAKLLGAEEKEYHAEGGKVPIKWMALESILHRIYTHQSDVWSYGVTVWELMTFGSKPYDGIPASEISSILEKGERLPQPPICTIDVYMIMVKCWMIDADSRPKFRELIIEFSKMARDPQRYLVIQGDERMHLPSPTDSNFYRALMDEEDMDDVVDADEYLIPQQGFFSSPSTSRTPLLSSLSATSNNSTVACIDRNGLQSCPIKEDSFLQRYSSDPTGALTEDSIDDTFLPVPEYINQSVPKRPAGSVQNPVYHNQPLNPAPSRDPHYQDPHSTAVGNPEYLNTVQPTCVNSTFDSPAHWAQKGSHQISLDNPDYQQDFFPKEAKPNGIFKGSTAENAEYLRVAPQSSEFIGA

Turning to `COc1c(Cl)cccc1Nc1c(-c2ccncc2OCC2COCCO2)[nH]c2c1C(=O)NCC2C` (single isomer, unassigned) [Example 34, 3-(3-chloro-2-methoxy-anilino)-2-[3-(1,4-dioxan-2-ylmethoxy)-4-pyridyl]-7-methyl-1,5,6,7-tetrahydropyrrolo[3,2-c]pyridin-4-one], the GI50 came to 20.2 nM in test [1], 14.3 nM in test [2], 16.9 nM in test [3] and 0.795 nM in test [4]. In addition, in the test with HCC-827 cells, the pIC50 (in general, the negative decadic logarithm of the IC50, by convention in mol/L) was above 8.52.
As for `COCC(C)Oc1cnccc1-c1[nH]c2c(c1Nc1cccc(Cl)c1OC)C(=O)N[C@@H]1CCC[C@H]21` (single isomer, unassigned) [Example 51], the GI50 was 13.6 nM in test [1], 6.89 nM in test [2], 11.4 nM in test [3] and 0.564 nM in test [4]. The pIC50 in the test with HCC-827 cells is above 8.52.
For `Cc1c(Cl)cccc1Nc1c(-c2ccncc2OCC2COCCO2)[nH]c2c1C(=O)NCC2C` (single isomer, unassigned) [Example 67, 3-(3-chloro-2-methyl-anilino)-2-[3-(1,4-dioxan-2-ylmethoxy)-4-pyridyl]-7-methyl-1,5,6,7-tetrahydropyrrolo[3,2-c]pyridin-4-one], in that order: 27.1 nM, 18.3 nM, 13.5 nM, 0.581 nM and above 8.52.
Turning to `COc1c(Cl)cccc1Nc1c(-c2ccncc2OCCC2CCCCO2)[nH]c2c1C(=O)N[C@H](C)C2` (single isomer, unassigned) [Example 87], the GI50 stood at 15 nM in test [1], 21.6 nM in test [2], 15 nM in test [3] and 0.804 nM in test [4]. Moreover, the pIC50 with HCC-827 cells is above 8.52.
As to `COc1c(Cl)cccc1Nc1c(-c2ccncc2OCCC(C)OC)[nH]c2c1C(=O)N[C@H](C)C2` (single isomer, unassigned) [Example 121], the GI50 in test [1] came out at 8.81 nM; in test [2], 4.49 nM; in test [3], 12.8 nM; in test [4], 0.384 nM. Moreover, the pIC50 with HCC-827 cells was above 8.52.
With `COc1c(Cl)cccc1Nc1c(-c2ccncc2OC[C@@H]2CCCO2)[nH]c2c1C(=O)NC1(CC1)C2` [Example 113, 3′-(3-chloro-2-methoxyanilino)-2′-(3-{[(2S)-oxolan-2-yl]methoxy}pyridin-4-yl)-1′,7′-dihydrospiro[cyclopropane-1,6′-pyrrolo[3,2-c]pyridin]-4′(5′H)-one], the GI50 in test [1] was 23.7 nM; in test [2], 14.3 nM; in test [3], 24.9 nM; in test [4], 1.1 nM. In the test on HCC-827 cells, the pIC50 is above 8.52.
